Measurements as given in patent US8563714B2, “Bridged spiro [2.4] heptane derivatives as ALX receptor and/or FPRL2 agonists” (Actelion Pharmaceuticals Ltd., priority 2009, dated 2013).

How the values were obtained:
human FPRL2 = molecular target: T1, human FPRL2 (Homo sapiens, UniProt P25089); assay: Intracellular calcium measurements (FLIPR), agonistic activity in HEK293-hFPRL2-Gα16 cells; assay type: cell-based; conditions: Fluo-4 calcium FLIPR, normalized to GLY14-Humanin 100 nM
T1 construct: expressed in transfected cells; host or cells: HEK293 (HEK293-hFPRL2-Gα16)
T1 sequence (P25089 1-353): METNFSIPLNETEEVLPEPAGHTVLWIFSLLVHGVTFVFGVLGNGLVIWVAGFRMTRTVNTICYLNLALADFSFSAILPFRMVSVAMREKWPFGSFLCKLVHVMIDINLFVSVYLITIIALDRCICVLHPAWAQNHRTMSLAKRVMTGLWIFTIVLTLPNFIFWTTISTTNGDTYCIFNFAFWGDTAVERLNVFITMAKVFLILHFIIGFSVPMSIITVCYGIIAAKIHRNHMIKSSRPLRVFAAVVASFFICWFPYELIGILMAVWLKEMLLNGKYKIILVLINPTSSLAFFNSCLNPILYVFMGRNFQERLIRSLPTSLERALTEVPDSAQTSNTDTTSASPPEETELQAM
Procedure, shortened: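 Peak values after baseline subtraction are expressed relative to 100 nM Gly14-Humanin; compounds diluted in assay buffer from 10 mM DMSO stocks.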

human ALX receptor = molecular target: T2, human ALX receptor (Homo sapiens, UniProt P25090); assay: Intracellular calcium measurements (FLIPR), agonistic activity in HEK293-hALXR-Gα16 cells; assay type: cell-based; conditions: Fluo-4 calcium FLIPR, normalized to WKYMVm 10 nM
T2 construct: expressed in transfected cells; host or cells: HEK293 (HEK293-hALXR-Gα16)
T2 sequence (P25090 1-351): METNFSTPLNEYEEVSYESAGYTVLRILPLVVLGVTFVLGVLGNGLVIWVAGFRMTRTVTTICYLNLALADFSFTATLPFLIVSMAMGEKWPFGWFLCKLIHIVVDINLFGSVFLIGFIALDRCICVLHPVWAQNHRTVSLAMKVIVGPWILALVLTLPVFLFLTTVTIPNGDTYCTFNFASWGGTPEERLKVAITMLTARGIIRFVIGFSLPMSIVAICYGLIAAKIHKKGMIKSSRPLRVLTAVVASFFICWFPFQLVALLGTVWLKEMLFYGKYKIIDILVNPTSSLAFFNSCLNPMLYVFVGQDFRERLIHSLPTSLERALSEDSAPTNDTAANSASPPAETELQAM
Procedure, shortened: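 Agonist-induced calcium flux was recorded by FLIPR (488/540 nm) in HEK293-hALXR-Gα16 cells pre-loaded with Fluo-4 AM (1 μM, 60 min, 37°C). Peak signal above baseline, after subtracting buffer addition, was expressed relative to WKYMVm at 10 nM final.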

EC50 (human FPRL2) | EC50 (human ALX receptor) | Compound
182 nM | 1330 nM | O=C(NCCCCN1CCCC1)[C@H]1[C@H](C(=O)Nc2cnc(Cl)nc2)[C@@H]2C=C[C@H]1C21CC1 (racemic) [Example 142, (5R*)—N^5-(2-Chloro-pyrimidin-5-yl)-(6R*)—N^6-(4-pyrrolidin-1-yl-butyl)-(4S*,7R*)-[4,7-ethenylene-spiro[2.4]heptane]-5,6-dicarboxamide]
94 nM | 2060 nM | O=C(NCCCCN1CCCC1)[C@H]1[C@H](C(=O)NCc2cccc(Br)c2)[C@@H]2C=C[C@H]1C21CC1 (racemic) [Example 143, (5R*)—N^5-(3-Bromophenyl-methyl)-(6R*)—N^6-(4-pyrrolidin-1-yl-butyl)-(4S*,7R*)-[4,7-ethenylene-spiro[2.4]heptane]-5,6-dicarboxamide]
324 nM | 2270 nM | O=C(NCCCCN1CCCC1)[C@H]1[C@H](C(=O)Nc2nc3ccccc3s2)[C@@H]2C=C[C@H]1C21CC1 (racemic) [Example 144, (5R*)—N^5-(Benzothiazol-2-yl)-(6R*)—N^6-(4-pyrrolidin-1-yl-butyl)-(4S*,7R*)-[4,7-ethenylene-spiro[2.4]heptane]-5,6-dicarboxamide]
647 nM | 3650 nM | CC(C)(C)c1cc(NC(=O)[C@H]2[C@H](C(=O)NCCCCN3CCCC3)[C@H]3C=C[C@@H]2C32CC2)no1 (racemic) [Example 145, (5R*)—N^5-(5-tert-Butyl-isoxazol-3-yl)-(6R*)—N^6-(4-pyrrolidin-1-yl-butyl)-(4S*,7R*)-[4,7-ethenylene-spiro[2.4]heptane]-5,6-dicarboxamide]
337 nM | 4420 nM | Cc1nsc2ccc(NC(=O)[C@H]3[C@H](C(=O)NCCCCN4CCCC4)[C@H]4C=C[C@@H]3C43CC3)cc12 (racemic) [Example 146, (5R*)—N^5-(3-Methyl-benzo[d]isothiazol-5-yl)-(6R*)—N^6-(4-pyrrolidin-1-yl-butyl)-(4S*,7R*)-[4,7-ethenylene-spiro[2.4]heptane]-5,6-dicarboxamide]
837 nM | 7410 nM | O=C(NCCCCN1CCCC1)[C@H]1[C@H](C(=O)Nc2ccc3[nH]ccc3c2)[C@@H]2C=C[C@H]1C21CC1 (racemic) [Example 147, (5R*)—N^5-(1H-Indol-5-yl)-(6R*)—N^6-(4-pyrrolidin-1-yl-butyl)-(4S*,7R*)-[4,7-ethenylene-spiro[2.4]heptane]-5,6-dicarboxamide]
226 nM | 7600 nM | O=C(NCCCCN1CCCC1)[C@H]1[C@H](C(=O)Nc2nc3ccc(F)cc3s2)[C@@H]2C=C[C@H]1C21CC1 (racemic) [Example 148, (5R*)—N^5-(6-Fluoro-benzothiazol-2-yl)-(6R*)—N^6-(4-pyrrolidin-1-yl-butyl)-(4S*,7R*)-[4,7-ethenylene-spiro[2.4]heptane]-5,6-dicarboxamide]
691 nM | 8090 nM | CCC(CC)CNC(=O)[C@H]1[C@H](C(=O)NCCCCN2CCCC2)[C@H]2C=C[C@@H]1C21CC1 (racemic) [Example 149, (5R*)—N^5-(2-Ethyl-butyl)-(6R*)—N^6-(4-pyrrolidin-1-yl-butyl)-(4S*,7R*)-[4,7-ethenylene-spiro[2.4]heptane]-5,6-dicarboxamide]
110 nM | 8440 nM | O=C(NCCCCN1CCCC1)[C@H]1[C@H](C(=O)Nc2nc(-c3ccc(Cl)cc3)cs2)[C@@H]2C=C[C@H]1C21CC1 (racemic) [Example 150, (5R*)—N^5-(4-(4-Chlorophenyl)-thiazol-2-yl)-(6R*)—N^6-(4-pyrrolidin-1-yl-butyl)-(4S*,7R*)-[4,7-ethenylene-spiro[2.4]heptane]-5,6-dicarboxamide]
714 nM | 9120 nM | O=C(NCCCCN1CCCC1)[C@H]1[C@H](C(=O)Nc2cccc3nonc23)[C@@H]2C=C[C@H]1C21CC1 (racemic) [Example 151, (5R*)—N^5-(Benzo[2,1,3]oxadiazol-4-yl)-(6R*)—N^6-(4-pyrrolidin-1-yl-butyl)-(4S*,7R*)-[4,7-ethenylene-spiro[2.4]heptane]-5,6-dicarboxamide]
150 nM | 9630 nM | CC(C)(C)c1csc(NC(=O)[C@H]2[C@H](C(=O)NCCCCN3CCCC3)[C@H]3C=C[C@@H]2C32CC2)n1 (racemic) [Example 152, (5R*)—N^5-(4-tert-Butyl-thiazol-2-yl)-(6R*)—N^6-(4-pyrrolidin-1-yl-butyl)-(4S*,7R*)-[4,7-ethenylene-spiro[2.4]heptane]-5,6-dicarboxamide]
91 nM | 9890 nM | O=C(NCCCCN1CCCC1)[C@H]1[C@H](C(=O)Nc2nc(-c3ccccc3)ns2)[C@@H]2C=C[C@H]1C21CC1 (racemic) [Example 153, (5R*)—N^5-(3-Phenyl-[1,2,4]thiadiazol-5-yl)-(6R*)—N^6-(4-pyrrolidin-1-yl-butyl)-(4S*,7R*)-[4,7-ethenylene-spiro[2.4]heptane]-5,6-dicarboxamide]
214 nM | 10000 nM | O=C(NCCCCN1CCCC1)[C@H]1[C@H](C(=O)Nc2nc3ccc(Cl)cc3s2)[C@@H]2C=C[C@H]1C21CC1 (racemic) [Example 154, (5R*)—N^5-(6-Chloro-benzothiazol-2-yl)-(6R*)—N^6-(4-pyrrolidin-1-yl-butyl)-(4S*,7R*)-[4,7-ethenylene-spiro[2.4]heptane]-5,6-dicarboxamide]
91 nM | > 25000 nM | Cc1cc2ccccc2n1CCCNC(=O)[C@H]1[C@H](C(=O)NCCCCN2CCCC2)[C@H]2C=C[C@@H]1C21CC1 (racemic) [Example 155, (5R*)—N^5-(3-(2-Methyl-1H-indol-1-yl)-propyl)-(6R*)—N^6-(4-pyrrolidin-1-yl-butyl)-(4S*,7R*)-[4,7-ethenylene-spiro[2.4]heptane]-5,6-dicarboxamide]
623 nM | > 25000 nM | Cn1c(CCNC(=O)[C@H]2[C@H](C(=O)NCCCCN3CCCC3)[C@H]3C=C[C@@H]2C32CC2)nc2ccccc21 (racemic) [Example 156, (5R*)—N^5-(2-(1-Methyl-1H-benzoimidazol-2-yl)-ethyl)-(6R*)—N^6-(4-pyrrolidin-1-yl-butyl)-(4S*,7R*)-[4,7-ethenylene-spiro[2.4]heptane]-5,6-dicarboxamide]
136 nM | > 25000 nM | O=C(NCCCCN1CCCC1)[C@H]1[C@H](C(=O)NCCn2ccc3ccccc32)[C@@H]2C=C[C@H]1C21CC1 (racemic) [Example 157, (5R*)—N^5-(2-(1H-Indol-1-yl)-ethyl)-(6R*)—N^6-(4-pyrrolidin-1-yl-butyl)-(4S*,7R*)-[4,7-ethenylene-spiro[2.4]heptane]-5,6-dicarboxamide]
204 nM | > 25000 nM | COc1ccccc1CCNC(=O)[C@H]1[C@H](C(=O)NCCCCN2CCCC2)[C@H]2C=C[C@@H]1C21CC1 (racemic) [Example 158, (5R*)—N^5-(2-(2-Methoxy-phenyl)-ethyl)-(6R*)—N^6-(4-pyrrolidin-1-yl-butyl)-(4S*,7R*)-[4,7-ethenylene-spiro[2.4]heptane]-5,6-dicarboxamide]
7920 nM | 47 nM | O=C(CCCN1CCCC1=O)NC[C@H]1[C@H](C(=O)Nc2ccc(Br)cc2)[C@@H]2C=C[C@H]1C21CC1 (racemic) [Example 161, (5R*)—N^5-(4-Bromo-phenyl)-(6R*)-6-[(4-(2-oxo-pyrrolidin-1-yl)-butyrylamino)-methyl]-(4S*,7R*)-[4,7-ethenylene-spiro[2.4]heptane]-5-carboxamide]
1730 nM | 61 nM | O=C(Cc1ccccc1Cl)NC[C@H]1[C@H](C(=O)Nc2ccc(Br)cc2)[C@@H]2C=C[C@H]1C21CC1 (racemic) [Example 162, (5R*)—N^5-(4-Bromo-phenyl)-(6R*)-6-[(2-(2-chloro-phenyl)-acetylamino)-methyl]-(4S*,7R*)-[4,7-ethenylene-spiro[2.4]heptane]-5-carboxamide]
5680 nM | 72 nM | COCCC(=O)NC[C@H]1[C@H](C(=O)Nc2ccc(Br)cc2)[C@@H]2C=C[C@H]1C21CC1 (racemic) [Example 163, (5R*)—N^5-(4-Bromo-phenyl)-(6R*)-6-[(3-methoxy-propionylamino)-methyl]-(4S*,7R*)-[4,7-ethenylene-spiro[2.4]heptane]-5-carboxamide]
